From US11274083B2, “Substituted thiophenyl uracils, salts thereof and the use thereof as herbicidal agents” (Syngenta Crop Protection AG, priority 2017, dated 2022)

Legend:
Format in all cases: in vivo
[1] = test system: Digitaria sanguinalis; experiment: Herbicidal action post-emergence, greenhouse pot test; conditions: application rate 20 g/ha
[2] = test system: Setaria viridis; experiment: as above; conditions: application rate 20 g/ha
Method: (§1) Seeds of mono- and dicotyledonous weed plants and crop plants were laid out in sandy loam soil in plastic or wood-fiber pots, covered with soil and grown under controlled growth conditions in a greenhouse. 2 to 3 weeks after sowing, the trial plants were treated at the one-leaf stage. The compounds of the invention formulated in the form of wettable powders (WP) or as emulsion concentrates (EC) were then sprayed onto the green parts of the plant as an aqueous suspension or emulsion with addition of 0.5% additive at a water application rate equivalent to 600 L/ha. After the trial plants had stood for about 3 weeks in the greenhouse, under optimal growth conditions, the effect of the preparations was scored visually by comparison with untreated controls. For example, 100% efficacy=plants have died, 0% efficacy=like control plants. Tables A1 to A16 below show the efficacies of selected compounds of the general formula (I) according to tables I.1 to I.50 on various harmful plants and an application rate corresponding to 80 g/ha or lower that were obtained by the aforementioned trial method.

[3] = test system: Stellaria media; experiment: as above; conditions: application rate 20 g/ha
Method: as §1

[4] = test system: Matricaria inodora; experiment: as above; conditions: application rate 20 g/ha
Method: as §1

[5] = test system: Amaranthus retroflexus; experiment: as above; conditions: application rate 20 g/ha
Method: as §1

[6] = test system: Viola tricolor; experiment: as above; conditions: application rate 20 g/ha
Method: as §1

[7] = test system: Echinochloa crus-galli; experiment: as above; conditions: application rate 20 g/ha
Method: as §1

[8] = test system: Veronica persica; experiment: as above
Method: as §1

[9] = test system: Polygonum convolvulus; experiment: as above
Method: as §1

[10] = test system: Abutilon theophrasti; experiment: as above; conditions: application rate 20 g/ha
Method: as §1

[11] = test system: Oryza sativa; experiment: Crop compatibility post-emergence, greenhouse pot test
Method: as §1, with “plants.” for “plants. Tables A1 to A16 below show the efficacies of selected compounds of the general formula (I) according to tables I.1 to I.50 on various harmful plants and an application rate corresponding to 80 g/ha or lower that were obtained by the aforementioned trial method.”
(§2) Crop plant compatibilities were also scored correspondingly.
(§3) The effects observed are reported here on selected crop plants by comparison, with the untreated controls (values in %).

[12] = test system: Triticum aestivum; experiment: as above
Method: as §1, with “plants.” for “plants. Tables A1 to A16 below show the efficacies of selected compounds of the general formula (I) according to tables I.1 to I.50 on various harmful plants and an application rate corresponding to 80 g/ha or lower that were obtained by the aforementioned trial method.”
as §2, §3

[13] = test system: Pharbitis purpurea; experiment: Herbicidal action post-emergence, greenhouse pot test; conditions: application rate 20 g/ha
Method: as §1

Row | SMILES | Digitaria sanguinalis (Efficacy in %) [1] | Setaria viridis (Efficacy in %) [2] | Stellaria media (Efficacy in %) [3] | Matricaria inodora (Efficacy in %) [4] | Amaranthus retroflexus (Efficacy in %) [5] | Viola tricolor (Efficacy in %) [6] | Echinochloa crus-galli (Efficacy in %) [7] | Veronica persica (Efficacy in %) ([8]; application rate 20 g/ha) | Polygonum convolvulus (Efficacy in %) ([9]; application rate 20 g/ha) | Abutilon theophrasti (Efficacy in %) [10] | Oryza sativa (Efficacy in %) ([11]; application rate 20 g/ha) | Triticum aestivum (Efficacy in %) ([12]; application rate 20 g/ha) | Oryza sativa (Efficacy in %) ([11]; application rate 5 g/ha) | Pharbitis purpurea (Efficacy in %) [13] | Triticum aestivum (Efficacy in %) ([12]; application rate 5 g/ha) | Veronica persica (Efficacy in %) ([8]; application rate 5 g/ha) | Polygonum convolvulus (Efficacy in %) ([9]; application rate 5 g/ha)
1 | CCC(Sc1cc(-n2c(=O)cc(C(F)(F)F)n(C)c2=O)c(F)cc1Cl)C(=O)OCC1CCC(=O)O1 (stereo not shown) [I.2-145, (5-Oxotetrahydrofuran-2-yl)methyl 2-({2-chloro-4-fluoro-5-[3-methyl-2,6-dioxo-4-(trifluoromethyl)-3,6-dihydropyrimidin-1(2H)-yl]phenyl}sulfanyl)butanoate] | 100% | 100% | 100% | 100% | 100% | 100% | 100% | 100% | 100% | 100% | 0% | 20% | – | – | – | – | –
2 | CCOC(=O)C1(COC(=O)C(C)Sc2cc(-n3c(=O)cc(C(F)(F)F)n(C)c3=O)c(F)cc2Cl)CCOCC1 (stereo not shown) [I.1-293] | 100% | 90% | 100% | 100% | 100% | 100% | 90% | 100% | – | 100% | – | – | – | – | – | – | –
3 | CCOC(=O)COC(=O)C(COC)Sc1cc(-n2c(=O)cc(C(F)(F)F)n(C)c2=O)c(F)cc1Cl (stereo not shown) [I.7-43] | 100% | – | – | – | – | – | – | – | – | – | – | – | – | – | – | – | –
4 | CCOC(=O)COC(=O)C(CC(C)C)Sc1cc(-n2c(=O)cc(C(F)(F)F)n(C)c2=O)c(F)cc1Cl (stereo not shown) [I.4-43] | – | – | 80% | 90% | 100% | 100% | – | 100% | 100% | 100% | 10% | 10% | – | – | – | – | –
5 | CC(Sc1cc(-n2c(=O)cc(C(F)(F)F)n(C)c2=O)c(F)cc1Cl)C(=O)OCC1CCC(=O)O1 (stereo not shown) [I.1-145] | – | – | – | – | – | – | – | – | – | – | – | – | 20% | – | – | – | –
6 | CCOC(=O)COC(=O)CSc1cc(-n2c(=O)cc(C(F)(F)F)n(C)c2=O)c(F)cc1Cl [I.8-43] | – | 100% | 80% | 100% | 100% | 100% | 90% | 100% | 100% | 100% | – | – | – | 100% | 10% | – | –
7 | CCCCOC(=O)COC(=O)C(C)Sc1cc(-n2c(=O)cc(C(F)(F)F)n(C)c2=O)c(F)cc1Cl (stereo not shown) [I.1-51] | 90% | 100% | 100% | 100% | 100% | 100% | 100% | 100% | 100% | 100% | – | – | – | 100% | 0% | – | –
8 | CCOC(=O)CCOC(=O)C(C)Sc1cc(-n2c(=O)c(C)c(C(F)(F)F)n(C)c2=O)c(F)cc1Cl (stereo not shown) [I.11-3] | – | – | 100% | 90% | – | 90% | 100% | – | – | 100% | 10% | – | – | – | 10% | – | –
9 | CCOC(=O)CCOC(=O)C(CC(C)C)Sc1cc(-n2c(=O)cc(C(F)(F)F)n(C)c2=O)c(F)cc1Cl (stereo not shown) [I.4-3, 3-Ethoxy-3-oxopropyl 2-({2-chloro-4-fluoro-5-[3-methyl-2,6-dioxo-4-(trifluormethyl)-3,6-dihydropyrimidin-1(2H)-yl]phenyl}sulfanyl)-4-methylpentanoate] | – | 90% | – | 80% | 100% | 100% | – | 80% | – | 100% | – | – | – | – | – | – | –
10 | CCOC(=O)COC(=O)C(Sc1cc(-n2c(=O)cc(C(F)(F)F)n(C)c2=O)c(F)cc1Cl)C(C)C (stereo not shown) [I.6-43, 2-Ethoxy-2-oxoethyl 2-({2-chloro-4-fluoro-5-[3-methyl-2,6-dioxo-4-(trifluoromethyl)-3,6-dihydropyrimidin-1(2H)-yl]phenyl}sulfanyl)-3-methylbutanoate] | – | – | 90% | – | – | 100% | – | – | – | 100% | 0% | – | – | – | – | 100% | –
11 | Cn1c(C(F)(F)F)cc(=O)n(-c2cc(SCC(=O)OCC(=O)OCc3ccccc3)c(Cl)cc2F)c1=O [I.8-46] | – | 100% | 100% | 100% | 100% | 100% | 90% | 100% | 100% | 100% | – | – | – | 100% | 20% | – | –
12 | CC(C)OC(=O)COC(=O)CSc1cc(-n2c(=O)cc(C(F)(F)F)n(C)c2=O)c(F)cc1Cl [I.8-44] | – | 100% | 100% | 100% | 100% | 100% | – | 100% | – | 100% | – | – | – | 100% | 20% | – | 100%
13 | CCOC(=O)CCOC(=O)C(Sc1cc(-n2c(=O)cc(C(F)(F)F)n(C)c2=O)c(F)cc1Cl)C(C)C (stereo not shown) [I.6-3, 3-Ethoxy-3-oxopropyl 2-({2-chloro-4-fluoro-5-[3-methyl-2,6-dioxo-4-(trifluoromethyl)-3,6-dihydropyrimidin-1(2H)-yl]phenyl}sulfanyl)-3-methylbutanoate] | 100% | 100% | 100% | 100% | 100% | 100% | – | 100% | – | 100% | 20% | – | – | – | – | – | –
